Tests used:
[1] = tested on: primary neonatal cardiomyocytes (α-sceletal muscle actin mRNA); assay: Hypertrophy marker α-actin 1 mRNA by quantitative real-time PCR; assay type: cell-based, rat
Description: Primary neonatal cardiomyocytes were prepared as described above. The cardiomyocytes were stimulated for 24 or 48 hours with 100 μmol/L phenylephrin (PE) or 10 μmol/L isoproterenol (ISO) in absence or presence of 10 μmol/L or 50 μmol/L of compound 31413.
After 24 hours or 48 hour of stimulation, the medium was removed, and every well was washed with 2 ml phosphate buffered saline and fixed with 200 μl TRIzol. The cells were removed from each well and transferred into a 1.5 ml Eppendorf tube, respectively.
For cell breakdown, 40 μl chloroform was added to each Eppendorf tube. The broken cells were centrifuged for 15 min at 1400 g and 4° C. The supernatant containing RNA/DNA was taken, mixed with 100 μl isopropanol and centrifugated for 20 min at 1500 g and 4° C. The supernatant was discarded and the pellet was resuspended in 500 μL ethanol. The RNA from the pellet was purified by chromatography. The concentration of the RNA was determined by NANODROP.
The quantification of the hypertrophy marker α-sceletal muscle actin (α-actin 1) mRNA was performed by quantitative real-time PCR. First, the RNA was transcribed to a cDNA with a SuperScript™III First-Strand Synthesis SuperMix (Invitrogen) and random hexamer primers. The cDNA was amplified in a PCR reaction in an Applied Biosystem StepOne™ Real-Time PCR System. Glycerinealdehydephosphate dehydrogenase and NTC (no template control) was used as controls. All samples were triplicates. The following primers have been used: […]

[2] = tested on: primary neonatal rat cardiomyocytes; assay: Beat rate of neonatal cardiomyocytes counted by light microscope; assay type: cell-based; conditions: for beat rate after PE stimulation: PE 6 h
Description: For cultivation of primary neonatal rat cardiomyocytes, hearts of two to three days old rats were obtained and quickly stored on ice in ADS buffer (116.4 mM NaCl, 5.4 mM KC, 5.6 mM dextrose, 10.9 mM NaH2PO4, 405.7 μmol/L MgSO4, 20 mM Hepes, pH 7.3). Under sterile conditions, the hearts were cleaned from blood and vessels, cut into small pieces and transferred into falcon tubes. The ADS buffer was exchanged against an enzyme solution (see table below). Within four cycles each with five ml enzyme solution and an enzyme mix comprising collagenase and pancreatin, isolated cells were released from the tissue (12 min at 37° C. in a water bath with approx. 220 rpm).
The supernatant with the isolated cells was collected, transferred in fetal calf serum (FCS, 2.5 ml on ice) and subsequently centrifugated in FCS (100 g for 3 min at 4° C.). The supernatant of the centrifugation was discarded and the pellet was resuspended in 5 ml cold plating medium. After an additional centrifugation, the pellet was resuspended in 15 ml medium, transferred into a dish and incubated for two hours at 37° C. to allow the settling of the fibroblasts. The cardiomyocytes in the supernatant were counted with a Scepter Handheld Automated Cell Counter and transferred in dishes coated with gelatine. On the following day the medium was changed.
The neonatal cardiomyocytes were seeded in 6-well plates with 1.5×10^6 cell per well. The stimulation with 100 μmol/L phenylephrine (PE) was performed for six or twenty four hours at 37° C. Untreated cells served as control. The effect of compound 31413 on the α-adrenergic stimulation of the cardiomyocytes was determined after incubation with the compound for three hours. To do this, the contraction of the cells was counted within a minute and different conditions were compared.
Isolated neonatal cardiomyocytes were used to investigate the relation between AKAP-Lbc induced RhoA activation and the contractility of the heart. After a chronic stimulation of the α1-adreno receptors (AR) with the specific agonist PE for six hours, the beats of the cardiomyocytes were counted over a period of 15 s and a beat rate per minute (bpm) was calculated. An increase of the beat rate of the cardiomyocytes from 100 bpm to 160 beats per minute could be observed. […] The beat rate of neonatal cardiomyocytes was counted with help of a light microscope.

[3] = tested on: AKAP-Lbc mediated RhoA/SRF activation; assay: Dual luciferase SRE reporter assay, AKAP-Lbc transfected HEK293; assay type: cell-based; conditions: Homo sapiens
Description: The experiments were performed following the protocol of the dual luciferase reporter assay (Promega). HEK293 cells were transfected with plasmid DNAs of two luciferases and plasmids of different exchange factors. A serum response element was located ahead of the coding luciferase sequences. Activated RhoA activates the serum response element, which enables the expression of the firefly luciferase. After 4 hours the cells were treated with compound 31413. After additional twenty four hours the cells were lysed in passive lysis buffer (Promega). The luciferase activity in the cell lysate was determined by measurement of the luminescence signal according to above mentioned protocol with 96 well plate (OptiPlate 96) and LarII- and. Stop-&Glow-substrate solutions in a micro plate reader
To rule out that other RhoGEF are influenced by the inventive compounds in their activity, HEK293 cells were transfected with different RhoGEF constructs. Additionally, as normalization control, two luciferase plasmids were added, which code for a serum response element (SRE) coupled firefly luciferase and for a Renilla luciferase, respectively. […] The luciferase activities were determined in the lysate. […] Further, the luciferase activity of the indicated RhoGEFs was analysed in absence or presence of 50 μmol/L compound 31413 (FIG. 4 B).

COc1ccc(-c2coc3cc4oc(=O)c(C)c(C)c4cc23)cc1 [Compound 31413, 3-(4-methoxyphenyl)-5,6-dimethyl-furo[3,2-g]chromen-7-one] was tested, and the “α-actin 1 mRNA amount” value ([1]; PE 100 μmol/L 24 h, compound 10 or 50 μmol/L) was “concentration dependent decrease”, the “relative amount of α-actin 1 mRNA” value ([1]; without PE stimulation) was “no significant change” and the “beat rate after PE stimulation” value ([2]; 2.5 μmol/L compound) was “normalization of the beat rate”. For the same molecule, the “beat rate after PE stimulation” value ([2]; 25 μmol/L compound) was “arrest”, the “beat rate after PE stimulation” value ([2]; 50 μmol/L compound) was “arrest” and the “phenylephrine/alpha-adrenoceptor-induced increase in cardiac myocyte beating frequency” value ([2]; at 2.5, 10, 25 and 50 μmol/L) was “prevents”. The IC50 [3] was ~25 µM.
